Our source for the IC50 values is US8815881B2 (Hoffmann-La Roche Inc., priority 2010, dated 2014).

This assay has as its target endogenous cellular BACE2 in the Ins1e rat cell line (Rattus norvegicus (Rat), UniProt Q6IE75). Put plainly: Assay for BACE inhibition by measuring cellular TMEM27 cleavage (ELISA of shed hTMEM27 from INS-TMEM27 cells). It counts as cell-based. The note with it: assay a): cellular TMEM27 cleavage, INS-TMEM27 cells (superscript a). An excerpt:
a) Assay for BACE Inhibition by Measuring Cellular TMEM27 Cleavage:
The assay uses the principle of inhibition of human TMEM27 cleavage by endogenous cellular BACE2 in the Ins1e rat cell line and shedding from the cell surface into the culture medium, followed by detection in an ELISA assay. Inhibition of BACE2 prevents the cleavage and shedding in a dose-dependent manner.
The stable cell line “INS-TMEM27” represents an INS1e-derived cell line with inducible expression (using the TetOn system) of full-length hTMEM27 in a doxycycline-dependent manner. The cells are cultured throughout the experiment in RPMI1640+Glutamax (Invitrogen) Penicillin/Streptomycin, 10% Fetal bovine serum, […], […], 100 micrograms/ml G418 and 100 microgram/ml hygromycin and are grown inadherent culture at 37° C. in a standard CO2 cell culture incubator.
INS-TMEM27 cells are seeded in 96-well plates. After 2 days in culture, BACE2 inhibitor is added in a range of concentrations as required by the assay and after a further two hours, doxycycline is added to a final concentration of 500 ng/ml. The cells are incubated for a further 46 hours and the supernatant harvested for detection of shed TMEM27.
An ELISA assay (using a pair of mouse anti-human-TMEM27 antibodies, raised against the extracellular domain of TMEM27) is used for detection of TMEM27 in the culture medium. An EC50 for BACE2 inhibition is calculated using the ELISA readout for each inhibitor concentration with standard curve-fitting software such as XLFit for the Excel spreadsheet program.

endogenous cellular BACE2 in the Ins1e rat cell line, sequence (Q6IE75 63-514): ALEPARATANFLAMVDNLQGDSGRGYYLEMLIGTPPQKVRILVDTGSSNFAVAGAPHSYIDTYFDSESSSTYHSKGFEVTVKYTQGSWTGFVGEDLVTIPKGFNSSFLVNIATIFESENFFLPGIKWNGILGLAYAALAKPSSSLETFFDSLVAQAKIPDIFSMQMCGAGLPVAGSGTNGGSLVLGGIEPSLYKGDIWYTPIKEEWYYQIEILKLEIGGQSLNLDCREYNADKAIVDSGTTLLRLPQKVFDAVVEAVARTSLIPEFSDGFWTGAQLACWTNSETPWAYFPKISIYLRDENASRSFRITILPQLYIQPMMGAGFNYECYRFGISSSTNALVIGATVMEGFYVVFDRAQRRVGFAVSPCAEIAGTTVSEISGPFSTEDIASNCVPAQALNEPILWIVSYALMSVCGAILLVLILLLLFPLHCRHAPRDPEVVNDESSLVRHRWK

`CN1C(=O)C(C)(C)[C@@](C)(c2cc(NC3CCC(CC(=O)O)C3)ccc2F)N=C1N` (stereo partly drawn) [Example 115, 2-(3-(3-((S)-2-Amino-1,4,5,5-tetramethyl-6-oxo-1,4,5,6-tetrahydropyrimidin-4-yl)-4-fluorophenylamino)cyclopentyl)acetic acid] came in with a half-inhibitory concentration (IC50) of 977 nM.

The compound `CN1C(=O)C(C)(C)[C@@](C)(c2cc(NC3CCC(C(F)(F)F)CC3)ccc2F)N=C1N` (stereo partly drawn) [Example 41, (S)-2-amino-6-(2-fluoro-5-(4-(trifluoromethyl)cyclohexylamino)phenyl)-3,5,5,6-tetramethyl-5,6-dihydropyrimidin-4(3H)-one] returned an IC50 of 426 nM.

`COc1cccc2c1CCC2Nc1ccc(F)c([C@@]2(C)N=C(N)N(C)C(=O)C2(C)C)c1` (stereo partly drawn) [Example 47, (S)-2-Amino-6-[2-fluoro-5-(4-methoxy-indan-1-ylamino)-phenyl]-3,5,5,6-tetramethyl-5,6-dihydro-3H-pyrimidin-4-one] gave an IC50 of 217 nM.

`CC(=O)N1CC(Nc2ccc(F)c([C@@]3(C)N=C(N)N(C)C(=O)C3(C)C)c2)c2ccc(F)cc21` (stereo partly drawn) [Example 137, (S)-6-[5-(1-Acetyl-6-fluoro-2,3-dihydro-1H-indol-3-ylamino)-2-fluoro-phenyl]-2-amino-3,5,5,6-tetramethyl-5,6-dihydro-3H-pyrimidin-4-one]: the IC50 is 124 nM.

`CN1C(=O)C(C)(C)[C@@](C)(c2cc(N[C@H]3CCC[C@@H]3O)ccc2F)N=C1N` [Example 92, (S)-2-Amino-6-(2-fluoro-5-((1S,2S)-2-hydroxycyclopentylamino)phenyl)-3,5,5,6-tetramethyl-5,6-dihydropyrimidin-4(3H)-one] gave a concentration for half-maximal inhibition (IC50) of 279 nM.

As to `CN1C(=O)C(C)(C)[C@@](C)(c2cc(Nc3ccccc3OC(F)(F)F)ccc2F)N=C1N` [Example 74, (S)-2-Amino-6-(2-fluoro-5-(2-(trifluoromethoxy)phenylamino)phenyl)-3,5,5,6-tetramethyl-5,6-dihydropyrimidin-4(3H)-one], the half-maximal inhibitory concentration (IC50) turned out to be 76 nM.

On to `C[C@@H]1CC(Nc2ccc(F)c([C@@]3(C)N=C(N)N(C)C(=O)C3(C)C)c2)C[C@H](C)O1` (stereo partly drawn) [Example 155, (6S)-2-Amino-6-(5-((2R,6S)-2,6-dimethyltetrahydro-2H-pyran-4-ylamino)-2-fluorophenyl)-3,5,5,6-tetramethyl-5,6-dihydropyrimidin-4(3H)-one], for which half-maximal inhibition (IC50) required 123 nM.

Take `CN1C(=O)C(C)(C)[C@@](C)(c2cc(NCC3CCOC3)ccc2F)N=C1N` (stereo partly drawn) [Example 76, (S)-2-Amino-6-{2-fluoro-5-[(tetrahydro-furan-3-ylmethyl)-amino]phenyl}-3,5,5,6-tetramethyl-5,6-dihydro-3H-pyrimidin-4-one]: the IC50 was determined as 15 nM.

`CC(Nc1ccc(F)c([C@@]2(C)N=C(N)N(C)C(=O)C2(C)C)c1)c1ncccn1` (stereo partly drawn) [Example 80, (S)-2-Amino-6-[2-fluoro-5-(1-pyrimidin-2-yl-ethylamino)-phenyl]-3,5,5,6-tetramethyl-5,6-dihydro-3H-pyrimidin-4-one] showed a half-maximal inhibitory concentration (IC50) of 44 nM.

As for `CN1C(=O)C(C)(C)[C@@](C)(c2cc(NC(=O)C(C)(C)F)ccc2F)N=C1N` [Example 16, (S)—N-(3-(2-Amino-1,4,5,5-tetramethyl-6-oxo-1,4,5,6-tetrahydropyrimidin-4-yl)-4-fluorophenyl)-2-fluoro-2-methylpropanamide], the IC50 is 9 nM.

`CN1C(=O)C(C)(C)[C@@](C)(c2cc(Nc3ccccc3)ccc2F)N=C1N` [Example 48, (S)-2-amino-6-(2-fluoro-5-(phenylamino)phenyl)-3,5,5,6-tetramethyl-5,6-dihydropyrimidin-4(3H)-one] had an IC50 of 42 nM.

On to `CN1C(=O)C(C)(C)[C@@](C)(c2cc(NC(=O)[C@@](C)(O)C(F)(F)F)ccc2F)N=C1N` [Example 142, (R)—N-(3-((S)-2-amino-1,4,5,5-tetramethyl-6-oxo-1,4,5,6-tetrahydropyrimidin-4-yl)-4-fluorophenyl)-3,3,3-trifluoro-2-hydroxy-2-methylpropanamide], for which the IC50 was determined as 89 nM.

As for `CN1C(=O)C(C)(C)[C@@](C)(c2cc(NC3CCc4cc(F)ccc43)ccc2F)N=C1N` (stereo partly drawn) [Example 35, (6S)-2-Amino-6-(2-fluoro-5-(5-fluoro-2,3-dihydro-1H-inden-1-ylamino)phenyl)-3,5,5,6-tetramethyl-5,6-dihydropyrimidin-4(3H)-one], the IC50 was determined as 84 nM.

As for `CCOC(=O)[C@H]1[C@@H]2C[C@@H](O)C(Nc3ccc(F)c([C@@]4(C)N=C(N)N(C)C(=O)C4(C)C)c3)[C@@H]21` (stereo partly drawn) [Example 100, (1S,3R,5R,6S)-ethyl 2-(3-((S)-2-amino-1,4,5,5-tetramethyl-6-oxo-1,4,5,6-tetrahydropyrimidin-4-yl)-4-fluorophenylamino)-3-hydroxybicyclo[3.1.0]hexane-6-carboxylate], the IC50 amounted to 1 nM.

`CN1C(=O)C(C)(C)[C@@](C)(c2cc(NCC3CCCOC3)ccc2F)N=C1N` (stereo partly drawn) [Example 90, (S)-2-Amino-6-{2-fluoro-5-[(tetrahydro-pyran-3-ylmethyl)-amino]-phenyl}-3,5,5,6-tetramethyl-5,6-dihydro-3H-pyrimidin-4-one] showed an IC50 of 467 nM.

For `CN1C(=O)C(C)(C)[C@@](C)(c2cc(NCC3(C)COC3)ccc2F)N=C1N` [Example 71, (S)-2-Amino-6-{2-fluoro-5-[(3-methyl-oxetan-3-ylmethyl)-amino]-phenyl}-3,5,5,6-tetramethyl-5,6-dihydro-3H-pyrimidin-4-one], the IC50 was 14 nM.

Compound `CN1C(=O)C(C)(C)[C@@](C)(c2cc(NC3CCC(c4ccccc4)C3)ccc2F)N=C1N` (stereo partly drawn) [Example 33, (6S)-2-Amino-6-(2-fluoro-5-(3-phenylcyclopentylamino)phenyl)-3,5,5,6-tetramethyl-5,6-dihydropyrimidin-4(3H)-one] showed a 50% inhibitory concentration (IC50) of 29 nM.

`CN1C(=O)C(C)(C)[C@@](C)(c2cc(NC3CC(C)(C)c4ccccc43)ccc2F)N=C1N` (stereo partly drawn) [Example 106, (6S)-2-Amino-6-(5-(3,3-dimethyl-2,3-dihydro-1H-inden-1-ylamino)-2-fluorophenyl)-3,5,5,6-tetramethyl-5,6-dihydropyrimidin-4(3H)-one] came in with an IC50 of 2 nM.

In turn, `CN1C(=O)C(C)(C)[C@@](C)(c2cc(Nc3ccccc3Cl)ccc2F)N=C1N` [Example 119, (S)-2-Amino-6-(5-(2-chlorophenylamino)-2-fluorophenyl)-3,5,5,6-tetramethyl-5,6-dihydropyrimidin-4(3H)-one] registered an IC50 of 16 nM.

`Cc1ccc2c(c1)C(Nc1ccc(F)c([C@@]3(C)N=C(N)N(C)C(=O)C3(C)C)c1)CC2(C)C` (stereo partly drawn) [Example 46, (S)-2-Amino-6-[2-fluoro-5-(3,3,6-trimethyl-indan-1-ylamino)-phenyl]-3,5,5,6-tetramethyl-5,6-dihydro-3H-pyrimidin-4-one] came in with an IC50 of 109 nM.

The compound `CN1C(=O)C(C)(C)[C@@](C)(c2cc(NC3[C@H]4[C@@H](C[C@H]3O)[C@@H]4C(=O)O)ccc2F)N=C1N` (stereo partly drawn) [Example 117, (1S,3R,5R,6S)-2-(3-((S)-2-amino-1,4,5,5-tetramethyl-6-oxo-1,4,5,6-tetrahydropyrimidin-4-yl)-4-fluorophenylamino)-3-hydroxybicyclo[3.1.0]hexane-6-carboxylic acid] returned an IC50 of 226 nM.

Consider `CN1C(=O)C(C)(C)[C@@](C)(c2cc(NC3CCc4c(C(=O)O)cccc43)ccc2F)N=C1N` (stereo partly drawn) [Example 136, 1-[3-((S)-2-Amino-1,4,5,5-tetramethyl-6-oxo-1,4,5,6-tetrahydro-pyrimidin-4-yl)-4-fluoro-phenylamino]-indan-4-carboxylic acid], for which the IC50 came to 2000 nM.

`CC1CCC(Nc2ccc(F)c([C@@]3(C)N=C(N)N(C)C(=O)C3(C)C)c2)C1` (stereo partly drawn) [Example 24, (S)-2-Amino-6-[2-fluoro-5-(3-methyl-cyclopentylamino)-phenyl]-3,5,5,6-tetramethyl-5,6-dihydro-3H-pyrimidin-4-one] showed a half-inhibitory concentration (IC50) of 39 nM.

Take `CN1C(=O)C(C)(C)[C@@](C)(c2cc(NC(=O)C3(C)COC3)ccc2F)N=C1N` [Example 131]: the 50% inhibitory concentration (IC50) worked out at 256 nM.

The compound `CN1C(=O)C[C@]2(CCc3ccc(NC(=O)C4(C(F)(F)F)CC4)cc32)N=C1N` [Example 15, (S)—N-(2′-Amino-1′-methyl-6′-oxo-2,3,5′,6′-tetrahydro-1′H-spiro[indene-1,4′-pyrimidine]-6-yl)-1-(trifluoromethyl)cyclopropanecarboxamide] displayed an IC50 of 7 nM.

`CN1C(=O)C(C)(C)[C@@](C)(c2cc(NCc3nn(C(F)F)cc3Cl)ccc2F)N=C1N` [Example 160, (S)-2-Amino-6-{5-[(4-chloro-1-difluoromethyl-1H-pyrazol-3-ylmethyl)-amino]-2-fluoro-phenyl}-3,5,5,6-tetramethyl-5,6-dihydro-3H-pyrimidin-4-one] had a concentration for half-maximal inhibition (IC50) of 6 nM.

In the case of `CN1C(=O)C(C)(C)[C@@](C)(c2cc(NC3CCN(Cc4ccccc4)CC3)ccc2F)N=C1N` [Example 43, (S)-2-Amino-6-[5-(1-benzyl-piperidin-4-ylamino)-2-fluoro-phenyl]-3,5,5,6-tetramethyl-5,6-dihydro-3H-pyrimidin-4-one], the IC50 was 211 nM.
